The term EC50 denotes the concentration that produces a half-maximal response. One may read the IC50 as the concentration at which inhibition is half-maximal.

Where two headings read alike, the source gives them in different places.

What all share (type): cell-based
Test [1] concerns FS11 human fibroblastic cells. In words: XTT test, number of viable cells, FS11 non-malignant fibroblasts. The settings on record: for EC50: Homo sapiens, Fibroblast, XTT test, concentrations tested up to 80 μM. The method, then:
(§1) The effect of the four compounds 497, 631, 115 and 540 on the growth profile of cancer cells which express Fer was tested. The cells that were tested were: the colon cancer cell lines HT29 and HCT 116, the breast cancer cell lines MDA-MB-231 and MCF-7, and the prostate cancer cell lines PC3 and DU145. The effect of each of the four compounds on FS11 cells, a non malignant fibroblastic cell line, was also studied.
(§2) The cells were seeded in 96 wells microplates and were left to grow untreated overnight. Each of the […] compounds was dissolved in DMSO and was then added to each well in a dose dependent manner from 0.4 to 80 μM. The concentration of DMSO in each well was 0.4% v/v. Untreated cells and cells subjected to 0.4% DMSO alone, served as controls. The number of viable cells in each well was determined 48, 72, 96 hours after compounds addition, using the XTT test (Berridge, M. V. et al, 2005).
(§3) The effect of compound E626-0342 on the growth profile of cancer cells which express Fer was tested. The compound was added to the growth media of FS11-normal primary human fibroblasts and to two colon cancer cell lines, HCT116 and HT29, which express Fer.
(§4) Various cell lines were seeded in 96 wells microplates and were left to grow untreated overnight. Compound E626-0342, dissolved in DMSO at a stock concentration of 10 mM was then added to each well in a dose dependent manner, resulting in final concentrations extending from 0.5 to 15 μM. The final concentration of DMSO in each well was 1% v/v. Untreated cells and cells subjected to 1% DMSO alone, served as controls. The number of viable cells in each well was determined 96 hours after addition of the compound, using the XTT test (Berridge, M. V. et al, 2005).

For test [2], the system named is MDA-MB-231 breast cancer cell line. As to the kind of experiment: XTT test, number of viable cells, MDA-MB-231. The settings on record: Homo sapiens, concentrations tested up to 80 μM. The method, then:
as §1, §2
(In general: Formazan colour is commonly taken as a measure of viable cells.)

Test [3] deals with HT29 human colorectal carcinoma cells. As to the kind of experiment: XTT test, number of viable cells, HT29. On the procedure:
as §1, §2, §3, §4

Test [4] relates to MCF-7 breast cancer cell line. In words: XTT test, number of viable cells, MCF-7. The conditions noted are these: Homo sapiens, MCF7, concentrations tested up to 80 μM. The method, then:
as §1, §2

Test [5] deals with HCT116 human colorectal carcinoma cells. As to the kind of experiment: XTT test, number of viable cells, HCT116. The method, then:
as §1, §2, §3, §4

In a further test the target is T1, murine Fer (Mus musculus, UniProt P70451).
T1 construct: expressed in transfected cells; host or cells: S. cerevisiae yeast cells harboring plasmid pAES-Fer
As to the kind of experiment: Fer tyrosine phosphorylation in yeast cells expressing ectopic Fer (western blot). The conditions noted are these: 40 μM for 48 h. The method, then:
To examine whether the above listed compounds affect the enzymatic activity of Fer, the protein tyrosine phosphorylation profile in yeast cells which ectopically express the murine Fer, was analyzed using the yeast system disclosed in WO2007/107991. Since the S. cerevisae yeast cells lack almost completely detectable, endogenous, tyrosine phosphorylation activity, the detected tyrosine phosphorylation signals result essentially from the kinase activity of the ectopic Fer. Furthermore, considering the negligible tyrosine-phosphorylation background in the cells, it is possible to specifically track the tyrosine phosphorylation level of Fer in the treated yeast cells.
Yeast cells expressing an ectopic Fer were treated with 40 μM of one of the compounds 497, 631, 115 and 540 for 48 h. […] The expression levels of Fer and the tyrosine phosphorylation profiles of the proteins before and after treatment with the compounds were determined using a western-blot analysis. […]
To examine whether E626-0342 affects the enzymatic activity of Fer, the protein tyrosine phosphorylation profile in yeast cells which ectopically express the murine Fer, was analyzed. Since the S. cerevisae yeast cells lack almost completely detectable, endogenous, tyrosine phosphorylation activity, the detected tyrosine phosphorylation signals result essentially from the kinase activity of the ectopic Fer. […]

Test [6] has as its system PC3 prostate cancer cell line. As to the kind of experiment: XTT test, number of viable cells, PC3. The conditions noted are these: concentrations tested up to 80 μM. The method, then: as §1, §2
In test [7] the test system is DU145 prostate cancer cell line. As to the kind of experiment: XTT test, number of viable cells, DU145. The conditions noted are these: Homo sapiens, DU-145, concentrations tested up to 80 μM. On the procedure: as §1, §2
Where [8] appears, read: HT-29, XTT test, concentrations tested up to 80 μM, read-out: EC50 on HT29.
Setting [9] is: HCT-116, XTT test, concentrations tested up to 80 μM, read-out: EC50 on HCT116.

T1 sequence (P70451 whole entry): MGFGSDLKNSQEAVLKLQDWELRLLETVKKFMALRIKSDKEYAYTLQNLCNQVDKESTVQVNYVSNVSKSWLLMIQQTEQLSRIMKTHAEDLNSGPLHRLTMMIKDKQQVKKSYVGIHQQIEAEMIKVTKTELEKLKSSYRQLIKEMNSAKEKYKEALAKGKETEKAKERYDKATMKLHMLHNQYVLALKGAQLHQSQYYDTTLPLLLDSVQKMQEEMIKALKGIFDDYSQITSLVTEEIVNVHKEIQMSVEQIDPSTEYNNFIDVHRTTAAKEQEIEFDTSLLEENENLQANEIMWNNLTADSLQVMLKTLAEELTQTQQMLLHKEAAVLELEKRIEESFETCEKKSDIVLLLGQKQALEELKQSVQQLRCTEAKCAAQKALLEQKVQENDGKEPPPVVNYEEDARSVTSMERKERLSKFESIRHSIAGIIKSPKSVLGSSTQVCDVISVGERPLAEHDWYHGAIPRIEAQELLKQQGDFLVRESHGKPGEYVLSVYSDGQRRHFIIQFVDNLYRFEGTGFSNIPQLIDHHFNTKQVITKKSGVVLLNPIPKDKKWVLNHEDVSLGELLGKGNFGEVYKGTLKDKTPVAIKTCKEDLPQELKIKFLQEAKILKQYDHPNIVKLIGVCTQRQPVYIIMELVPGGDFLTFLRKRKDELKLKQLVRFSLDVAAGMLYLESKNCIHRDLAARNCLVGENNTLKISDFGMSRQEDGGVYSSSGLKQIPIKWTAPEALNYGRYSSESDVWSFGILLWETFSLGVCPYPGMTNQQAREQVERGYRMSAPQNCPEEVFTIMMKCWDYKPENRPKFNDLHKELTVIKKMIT

Consider `Cc1ccn2cc(-c3ccc(F)cc3)cc2c1` [Compound 115], for which the EC50 in test [1] is more than 80 µM; in test [2], 40 µM; in test [3] (setting [8]) it was 32 µM; in test [4] it was 8 µM; in test [5] (setting [9]), 32 µM.
Regarding `CC(C)c1nn2cc(-c3ccc(F)cc3)nc2s1` [Compound 631], in test [1] (up to a concentration of 80 μM), the “effect on FS11 cells” value was “did not affect”. Also, the EC50 in test [2] came out at 32 µM; in test [3] (HT-29, 0.4% DMSO, 0.4 to 80 μM, read-out: EC50, decrease in cell viability, HT29), 40 µM; in test [3] (setting [8]) it was 30 µM; in test [6], 32 µM; in test [5] (HCT-116, 0.4% DMSO, 0.4 to 80 μM, read-out: EC50, decrease in cell viability, HCT116), 24 µM; in test [5] (setting [9]), 24 µM. The “tyrosine phosphorylation level of the Fer protein band (Fer autophosphorylation)” value on murine Fer is “significant reduction”.
As for `Nc1cc(-c2ccc(Cl)cc2)nn1S(=O)(=O)c1c(F)c(F)c(F)c(F)c1F` [Compound 497], the EC50 in test [1] is 4 µM; in test [2], 2 µM; in test [3] (setting [8]), 2 µM; in test [6] it was 4 µM; in test [7], 8 µM; in test [4], 8 µM. The EC50 in test [5] (setting [9]) was determined as 2 µM. Also, the IC50 was found to be 2 µM in test [3] (HT-29, after 96 h, read-out: IC50, reduction in number of viable cells, HT29) and 2 µM in test [5] (HCT-116, after 96 h, read-out: IC50, reduction in number of viable cells, HCT116). In addition, on murine Fer, the “tyrosine phosphorylation level of the Fer protein band (Fer autophosphorylation)” value is given as “significant reduction”.

The record behind these values is US8481572B2, “Pharmaceutical compositions and methods for the treatment of cancer” (Urifer Ltd., priority 2007, dated 2013).
